Results published in publication PMC7838034 (Acta Pharmaceutica Sinica. B, 2020).
Read-outs that look alike come from different tables or passages of the source.

How the values were obtained:
PARP1 = PARP1 (Homo sapiens, UniProt P09874); experiment: PARP1 inhibition assay; type: biochemical; conditions: tested in duplicate, average; for inhibition at 1 µM: read-out: Inhibition rate PARP1, 1 μmol/L; for inhibition at 10 µM: read-out: Inhibition rate PARP1, 10 μmol/L
[1] = biological target: recombinant BRD4(BD1 + BD2) (Homo sapiens, UniProt O60885); experiment: BRD4 inhibition assay; type: binding; conditions: for inhibition at 1 µM: read-out: Inhibition rate BRD4, 1 μmol/L; for inhibition at 1 µM / inhibition at 10 µM / Inhibition rate BRD4: tested in duplicate, average; for inhibition at 10 µM: read-out: Inhibition rate BRD4, 10 μmol/L
MDA-MB-468 cells [2] = experiment: Cell viability assay; type: cell-based, human; conditions: read-out: Anti-proliferative activity (IC50)
[3] = HE staining of major organs of xenograft mice; type: in vivo, nude mice (BALB/c); conditions: after 19d treatment, all groups of both xenograft models
MCF-7 tumor xenograft = experiment: MCF-7 breast cancer xenograft model
MDA-MB-468 cells [4] = experiment: Annexin V-FITC/PI apoptosis assay; type: cell-based, human; conditions: 1, 3.3 and 10 μmol/L
[5] = tested on: BRD4 and PARP1 in MCF-7 tumor tissues; experiment: IHC staining of tumor tissue; type: in vivo, nude mice (BALB/c); conditions: 19d treatment groups
[6] = Pharmacokinetic study, oral; type: in vivo, Sprague–Dawley rats
[7] = tested on: MDA-MB-468 tumor xenograft; experiment: MDA-MB-468 breast cancer xenograft model
MCF-7 cells = experiment: Annexin V-FITC/PI apoptosis assay; type: cell-based, human
[8] = tested on: protein expression in MDA-MB-468 cells; experiment: Western blot analysis; type: cell-based, human
[9] = tested on: BRD4 and PARP1 in MDA-MB-468 tumor tissues; experiment: IHC staining of tumor tissue; type: in vivo, nude mice (BALB/c); conditions: 40 mg/kg, compared with control group
MDA-MB-468 cells [10] = experiment: Colony formation assay; type: cell-based, human; conditions: compared with DMSO-treated control
[11] = MDA-MB-468 cells, cell viability assay for 24 h
[12] = male, Sprague-Dawley, rat, plasma, po, 10 mg/kg

Chain of PARP1 (P09874 whole entry): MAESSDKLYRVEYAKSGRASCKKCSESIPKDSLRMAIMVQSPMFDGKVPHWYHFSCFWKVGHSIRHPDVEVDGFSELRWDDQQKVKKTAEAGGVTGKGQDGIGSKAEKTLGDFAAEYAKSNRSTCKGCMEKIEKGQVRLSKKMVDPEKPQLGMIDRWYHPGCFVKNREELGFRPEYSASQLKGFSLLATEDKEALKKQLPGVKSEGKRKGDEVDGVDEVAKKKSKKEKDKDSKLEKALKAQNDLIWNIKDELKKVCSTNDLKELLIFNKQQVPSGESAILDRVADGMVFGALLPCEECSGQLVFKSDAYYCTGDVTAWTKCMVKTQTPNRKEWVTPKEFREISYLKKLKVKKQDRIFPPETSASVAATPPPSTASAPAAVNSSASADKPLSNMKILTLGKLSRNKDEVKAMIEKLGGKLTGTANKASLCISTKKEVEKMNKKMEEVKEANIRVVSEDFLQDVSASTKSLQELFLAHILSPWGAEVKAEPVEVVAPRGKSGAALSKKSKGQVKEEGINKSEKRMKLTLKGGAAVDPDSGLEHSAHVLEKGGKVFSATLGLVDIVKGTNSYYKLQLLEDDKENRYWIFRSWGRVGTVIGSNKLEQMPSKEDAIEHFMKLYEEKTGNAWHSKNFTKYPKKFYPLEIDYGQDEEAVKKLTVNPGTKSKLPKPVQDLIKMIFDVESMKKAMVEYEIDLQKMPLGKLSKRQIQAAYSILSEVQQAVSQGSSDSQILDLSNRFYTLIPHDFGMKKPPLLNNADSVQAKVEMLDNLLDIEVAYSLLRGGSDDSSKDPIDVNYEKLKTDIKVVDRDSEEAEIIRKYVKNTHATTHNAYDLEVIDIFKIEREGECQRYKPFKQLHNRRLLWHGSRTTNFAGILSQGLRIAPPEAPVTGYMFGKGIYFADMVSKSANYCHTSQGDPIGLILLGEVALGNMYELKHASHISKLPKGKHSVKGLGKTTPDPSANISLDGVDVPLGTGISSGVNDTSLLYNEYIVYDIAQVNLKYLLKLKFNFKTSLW

Row | Compound | inhibition at 1 µM (PARP1) | inhibition at 10 µM (PARP1) | inhibition at 1 µM [1] | inhibition at 10 µM [1] | IC50 (MDA-MB-468 cells [2]; Homo sapiens, MDA-MB-468, 24 h) | other results
1 | 2-(2-(2-((3a,7a-Dihydro-1H-benzo[d][1,2,3]triazol-1-yl)oxy)ethoxy)-4-methoxyphenyl)-5,7-dimethoxyquinazolin-4(3H)-one [Compound 19q] |  |  |  |  |  | Inhibition rate PARP1 (PARP1; 1 μmol/L): 3%; Inhibition rate PARP1 (PARP1; 10 μmol/L): 2%; Inhibition rate BRD4 ([1]; 1 μmol/L): 11%; Inhibition rate BRD4 ([1]; 10 μmol/L): 80%; IC50 (MDA-MB-468 cells [2]; [11]): 24.2 ± 2.2 µM
2 | COc1cc(OC)c2c(=O)[nH]c(-c3ccc(OCCOc4ccc5cn[nH]c5c4)cc3)nc2c1 [Compound 19o, 2-(4-(2-((1H-Indazol-6-yl)oxy)ethoxy)phenyl)-5,7-dimethoxyquinazolin-4(3H)-one] | 3% | 13% | 3% | 56% | > 30 µM | 
3 | COc1cc(OC)c2c(=O)[nH]c(-c3ccc(OCCOc4ccccc4C(N)=O)cc3)nc2c1 [Compound 19d, 2-(2-(4-(5,7-Dimethoxy-4-oxo-3,4-dihydroquinazolin-2-yl)phenoxy)ethoxy)benzamide] | 37% | 88% | 69% | 92% | 3.4 ± 1.1 µM | histological changes in major organs (HE) [3]: no visible histological changed; TGI rate (MCF-7 tumor xenograft; 80 mg/kg oral, once a day): 48.3%; toxicity (body weight) of the dosages used (MCF-7 tumor xenograft; 20, 40 and 80 mg/kg oral): no apparent toxicity; apoptosis induction (MDA-MB-468 cells [4]): induced apoptosis in a dose-dependent manner; expression levels of BRD4 and PARP1 in tumor tissues [5]: slightly downregulated; AUC0−∞ ([6]; SD rats, p.o. 10 mg/kg, n = 3, mean ± SD): 144.72 ± 25.51 ng·h/mL; AUC(0-t) [6, 12]: 114 ± 15.8 ng·h/mL; MRT inf [6, 12]: 5.35 ± 0.44 h; improved efficacy against BRD4 than RVX-208 ([1]; ratio of BRD4 IC50 values): > 30 fold; tumor growth inhibition (TGI) ([7]; 80 mg/kg oral, once a day): 55.3%; body weight change and death during treatment ([7]; 20, 40 and 80 mg/kg oral): slight body weight change and no death of mice; apoptosis induction (MCF-7 cells): no significant changes; PAR expression ([8]; 2 μmol/L, 24 h): effective downregulation; c-Myc expression ([8]; 2 μmol/L, 24 h): higher c-Myc inhibition efficiency than RVX-208; BAX and active form of caspase-3 expression ([8]; 1, 3.3 and 10 μmol/L): increased; BCL-2 expression ([8]; 1, 3.3 and 10 μmol/L): remarkably downregulated; expression of c-Myc and PAR ([8]; 1, 3.3 and 10 μmol/L, 24 h): decreased the expression of c-Myc and PAR in a dose-dependent manner; expression levels of BRD4 and PARP1 in tumor tissues [9]: effectively suppressed; colony counts (MDA-MB-468 cells [10]): remarkably decreased the colony counts
4 | COc1cc(OC)c2c(=O)[nH]c(-c3cc(C)c(OCCOn4nnc5ccccc54)c(C)c3)nc2c1 [Compound 19i, 2-(4-(2-((1H-Benzo[d][1,2,3]triazol-1-yl)oxy)ethoxy)-3,5-dimethylphenyl)-5,7-dimethoxyquinazolin-4(3H)-one] | 11% | 18% | 18% | 61% | > 30 µM | 
5 | COc1cc(OC)c2c(=O)[nH]c(-c3ccc(OCCOn4nnc5ccccc54)c(Cl)c3)nc2c1 [Compound 19p, 2-(4-(2-((1H-Benzo[d][1,2,3]triazol-1-yl)oxy)ethoxy)-3-chlorophenyl)-5,7-dimethoxyquinazolin-4(3H)-one] | 3% | 6% | 3% | 44% | > 30 µM | 
6 | 2-(4-Chloro-2-(2-((3a,7a-dihydro-1H-benzo[d][1,2,3]triazol-1-yl)oxy)ethoxy)phenyl)-5,7-dimethoxyquinazolin-4(3H)-one [Compound 19r] |  |  |  |  |  | Inhibition rate PARP1 (PARP1; 1 μmol/L): 4%; Inhibition rate PARP1 (PARP1; 10 μmol/L): 6%; Inhibition rate BRD4 ([1]; 1 μmol/L): 17%; Inhibition rate BRD4 ([1]; 10 μmol/L): 77%; IC50 (MDA-MB-468 cells [2]; [11]): > 30 µM
7 | COc1cc(OC)c2c(=O)[nH]c(-c3cc(C)c(OCCO)c(C)c3)nc2c1 [RVX-208, reference compound] | 1% | 4% | 20% | 60% | > 30 µM | 
8 | COc1cc(OC)c2c(=O)[nH]c(-c3ccc(OCCOc4ccc5nc[nH]c(=O)c5c4)cc3)nc2c1 [Compound 19t, 5,7-Dimethoxy-2-(4-(2-((4-oxo-3,4-dihydroquinazolin-6-yl)oxy)ethoxy)phenyl)quinazolin-4(3H)-one] | 1% | 25% | 9% | 67% | > 30 µM | 

Second part, led by results:

Row | inhibition at 1 µM (PARP1) | inhibition at 10 µM (PARP1) | inhibition at 1 µM [1] | inhibition at 10 µM [1] | IC50 (MDA-MB-468 cells [2]; Homo sapiens, MDA-MB-468, 24 h) | Compound | other results
9 | 25% | 70% | 15% | 72% | 5.7 ± 2.1 µM | COc1cc(OC)c2c(=O)[nH]c(-c3cc(OC)c(OCCOc4ccccc4C(N)=O)c(OC)c3)nc2c1 [Compound 19g, 2-(2-(4-(5,7-Dimethoxy-4-oxo-3,4-dihydroquinazolin-2-yl)-2,6-dimethoxyphenoxy)ethoxy)benzamide] | 
10 | 6% | 18% | 12% | 64% | > 30 µM | COc1cc(OC)c2c(=O)[nH]c(-c3cc(OC)c(OCCOn4nnc5ccccc54)c(OC)c3)nc2c1 [Compound 19j, 2-(4-(2-((1H-Benzo[d][1,2,3]triazol-1-yl)oxy)ethoxy)-3,5-dimethoxyphenyl)-5,7-dimethoxyquinazolin-4(3H)-one] | 
11 | 35% | 81% | 3% | 69% | 10.9 ± 0.5 µM | COc1cc(OC)c2c(=O)[nH]c(-c3cc(Cl)ccc3OCCCOc3ccccc3C(N)=O)nc2c1 [Compound 19b, 2-(3-(4-Chloro-2-(5,7-dimethoxy-4-oxo-3,4-dihydroquinazolin-2-yl)phenoxy)propoxy)benzamide] | 
12 | 12% | 65% | 8% | 74% | 8.7 ± 5.2 µM | COc1cc(OC)c2c(=O)[nH]c(-c3cc(F)ccc3OCCOc3ccccc3C(N)=O)nc2c1 [Compound 19s, 2-(2-(2-(5,7-Dimethoxy-4-oxo-3,4-dihydroquinazolin-2-yl)-4-fluorophenoxy)ethoxy)benzamide] | 
13 | 36% | 81% | 6% | 77% | 6.7 ± 2.4 µM | COc1cc(OC)c2c(=O)[nH]c(-c3ccc(OCCOc4ccncc4C(N)=O)cc3)nc2c1 [Compound 19u, 4-(2-(4-(5,7-Dimethoxy-4-oxo-3,4-dihydroquinazolin-2-yl)phenoxy)ethoxy)nicotinamide] | 
14 | 7% | 29% | 13% | 83% | 22.9 ± 2.4 µM | COc1cc(OC)c2c(=O)[nH]c(-c3ccc(OCCOn4nnc5ccccc54)cc3)nc2c1 [Compound 19k, 2-(4-(2-((1H-Benzo[d][1,2,3]triazol-1-yl)oxy)ethoxy)phenyl)-5,7-dimethoxyquinazolin-4(3H)-one] | 
15 | 40% | 79% | 11% | 74% | 8.4 ± 1.3 µM | COc1cc(OC)c2c(=O)[nH]c(-c3cc(C)c(OCCOc4ccccc4C(N)=O)c(C)c3)nc2c1 [Compound 19f, 2-(2-(4-(5,7-Dimethoxy-4-oxo-3,4-dihydroquinazolin-2-yl)-2,6-dimethylphenoxy)ethoxy)benzamide] | 
16 | 18% | 71% | 4% | 55% | 15.3 ± 3.6 µM | COc1cc(OC)c2c(=O)[nH]c(-c3cc(Cl)ccc3OCCCCCOc3ccccc3C(N)=O)nc2c1 [Compound 19e, 2-((5-(4-Chloro-2-(5,7-dimethoxy-4-oxo-3,4-dihydroquinazolin-2-yl)phenoxy)pentyl)oxy)benzamide] | 
